Test results published in patent publication US11236129B2, “IL-17A binding peptides and medical uses thereof” (Dompe' Farmaceutici S.P.A., priority 2018, dated 2022).
Residues, ends and D or L forms follow the SMILES beside them.

Target: IL-17RA/IL17RC dimerization induced by IL-17A (Homo sapiens, UniProt Q16552)
Assay: IL-17RA/IL17RC dimerization assay in response to IL-17A (PathHunter Cytokine Receptor Assay)
Format: cell-based
Settings: IL-17A at EC80; read-out: IC50 in IL-17RA/IL7RC dimerization assay
Procedure: The peptides of Table 7 were tested for their ability to inhibit the binding of IL-17A to its receptor and the subsequent interaction of IL-17RA and IL17RC.
Interleukin receptor RA and RC dimerization assay (DiscoverX) was used to measure the interaction of the receptor chains IL-17RA and IL17RC upon activation by IL-17A in the absence or presence of the peptides of Table 7.
In the PathHunter® Cytokine Receptor Assay, one cytokine receptor chain is tagged with a small peptide epitope ProLink (PK) and the other chain is tagged with Enzyme Acceptor (EA). Ligand binding induces dimerization of the two receptors, facilitating complementation of PK and EA fragments. This interaction generates an active unit of b-galactosidase, which is detected using a chemiluminescent substrate. PathHunter cell lines were expanded from freezer stocks according to standard procedures. Cells were seeded in a total volume of 20 μL into white walled, 384-well microplates and incubated for the appropriate time prior to testing. For agonist activity inhibition, cells were incubated with sample to induce response. Intermediate dilution of sample stocks was performed to generate 5× sample in assay buffer. 5 μL of 5× sample was added to cells and incubated at 37° C. or room temperature for 60 minutes. Vehicle concentration was 1%. 5 μL of 6×EC80 agonist (IL-17A) in assay buffer was added to the cells and incubated at 37° C. for 6 to 16 hours depending on the assay. 1. […] For some assays, activity was detected using a high sensitivity detection reagent (PathHunter Flash Kit) to improve assay performance. In these assays, an equal volume of detection reagent (25 or 30 uL) was added to the wells, followed by a one hour incubation at room temperature. Microplates were read following signal generation with a PerkinElmer Envision™ instrument for chemiluminescent signal detection. Compound activity was analyzed using CBIS data analysis suite (ChemInnovation, CA). % Inhibition=100%×(1−(mean RLU of test sample−mean RLU of vehicle control)/(mean RLU of EC80 control−mean RLU of vehicle control)).

Sequence of IL-17RA/IL17RC dimerization induced by IL-17A (Q16552 24-155): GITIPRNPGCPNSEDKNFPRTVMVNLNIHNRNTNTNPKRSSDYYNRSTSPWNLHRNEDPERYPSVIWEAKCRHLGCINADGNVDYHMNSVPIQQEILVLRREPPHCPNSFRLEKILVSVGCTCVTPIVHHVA

IC50 | Compound
< 0.5 µM | CC[C@H](C)[C@H](NC(=O)[C@@H](NC(=O)[C@@H](NC(=O)[C@H](Cc1c[nH]cn1)NC(=O)[C@@H](NC(C)=O)C(C)C)C(C)C)[C@@H](C)O)C(=O)N1CCC[C@H]1C(=O)N[C@@H](C)C(=O)N[C@@H](CC(=O)O)C(=O)N[C@@H](CC(C)C)C(=O)N[C@@H](Cc1c[nH]c2ccccc12)C(=O)N[C@@H](CCC(=O)O)C(=O)N[C@@H](Cc1ccccc1)C(=O)N[C@H](C(=O)N[C@@H](CCCNC(=N)N)C(=O)N[C@@H](CCCNC(=N)N)C(N)=O)C(C)C [SEQ ID NO: 120] (Ac-VHVTIPADLWEFVRR-NH2)
< 0.5 µM | CC[C@H](C)[C@H](NC(=O)[C@H](Cc1ccc(O)cc1)NC(=O)[C@@H](NC(=O)[C@H](Cc1c[nH]cn1)NC(=O)[C@@H](NC(C)=O)C(C)C)C(C)C)C(=O)N1CCC[C@H]1C(=O)N[C@@H](C)C(=O)N[C@@H](CCC(=O)O)C(=O)N[C@@H](CC(C)C)C(=O)N[C@@H](Cc1c[nH]c2ccccc12)C(=O)N[C@@H](CCC(=O)O)C(=O)N[C@@H](Cc1c[nH]c2ccccc12)C(=O)N[C@H](C(=O)N[C@@H](CCCNC(=N)N)C(=O)N[C@@H](CCCNC(=N)N)C(N)=O)C(C)C [SEQ ID NO: 122] (Ac-VHVYIPAELWEWVRR-NH2)
< 0.5 µM | CC[C@H](C)[C@H](NC(=O)[C@@H](NC(=O)[C@@H](NC(=O)[C@H](Cc1c[nH]cn1)NC(=O)[C@@H](NC(C)=O)C(C)C)C(C)C)[C@@H](C)O)C(=O)N1CCC[C@H]1C(=O)N[C@@H](C)C(=O)N[C@@H](CCC(=O)O)C(=O)N[C@@H](Cc1c[nH]c2ccccc12)C(=O)N[C@@H](Cc1c[nH]c2ccccc12)C(=O)N[C@@H](CCC(=O)O)C(=O)N[C@@H](Cc1c[nH]c2ccccc12)C(=O)N[C@H](C(=O)N[C@@H](CCCNC(=N)N)C(=O)N[C@@H](CCCNC(=N)N)C(N)=O)C(C)C [SEQ ID NO: 123] (Ac-VHVTIPAEWWEWVRR-NH2)
< 0.5 µM | CC(=O)N[C@H](C(=O)N[C@@H](Cc1c[nH]cn1)C(=O)N[C@@H](Cc1ccccc1)C(=O)N[C@H](C(=O)N[C@@H](Cc1ccccc1)C(=O)N1CCC[C@H]1C(=O)N[C@@H](CCC(N)=O)C(=O)N[C@@H](CC(=O)O)C(=O)N[C@@H](CC(C)C)C(=O)N[C@@H](Cc1c[nH]c2ccccc12)C(=O)N[C@@H](CCC(=O)O)C(=O)N[C@@H](Cc1c[nH]c2ccccc12)C(=O)N[C@H](C(=O)N[C@@H](CCCNC(=N)N)C(=O)N[C@@H](CCCNC(=N)N)C(N)=O)C(C)C)[C@@H](C)O)C(C)C [SEQ ID NO: 124] (Ac-VHFTFPQDLWEWVRR-NH2)
< 0.5 µM | CC(=O)N[C@H](C(=O)N[C@@H](Cc1c[nH]cn1)C(=O)N[C@@H](Cc1ccccc1)C(=O)N[C@H](C(=O)N[C@@H](Cc1ccccc1)C(=O)N1CCC[C@H]1C(=O)N[C@@H](CCC(N)=O)C(=O)N[C@@H](CC(=O)O)C(=O)N[C@@H](Cc1ccccc1)C(=O)N[C@@H](Cc1c[nH]c2ccccc12)C(=O)N[C@@H](CCC(=O)O)C(=O)N[C@@H](Cc1c[nH]c2ccccc12)C(=O)N[C@H](C(=O)N[C@@H](CCCNC(=N)N)C(=O)N[C@@H](CCCNC(=N)N)C(N)=O)C(C)C)[C@@H](C)O)C(C)C [SEQ ID NO: 125] (Ac-VHFTFPQDFWEWVRR-NH2)
< 0.5 µM | CC[C@H](C)[C@H](NC(=O)[C@@H](NC(=O)[C@H](Cc1ccccc1)NC(=O)[C@H](Cc1c[nH]cn1)NC(=O)[C@@H](NC(C)=O)C(C)C)[C@@H](C)O)C(=O)N1CCC[C@H]1C(=O)N[C@@H](CCC(N)=O)C(=O)N[C@@H](CC(=O)O)C(=O)N[C@@H](CC(C)C)C(=O)N[C@@H](Cc1ccc(O)cc1)C(=O)N[C@@H](CCC(=O)O)C(=O)N[C@@H](Cc1c[nH]c2ccccc12)C(=O)N[C@H](C(=O)N[C@@H](CCCNC(=N)N)C(=O)N[C@@H](CCCNC(=N)N)C(N)=O)C(C)C [SEQ ID NO: 126] (Ac-VHFTIPQDLYEWVRR-NH2)
< 0.5 µM | CC(=O)N[C@H](C(=O)N[C@@H](Cc1c[nH]cn1)C(=O)N[C@@H](Cc1ccccc1)C(=O)N[C@H](C(=O)N[C@@H](Cc1ccccc1)C(=O)N1CCC[C@H]1C(=O)N[C@@H](CCC(N)=O)C(=O)N[C@@H](CC(=O)O)C(=O)N[C@@H](CC(C)C)C(=O)N[C@@H](Cc1c[nH]c2ccccc12)C(=O)N[C@@H](CC(N)=O)C(=O)N[C@@H](Cc1c[nH]c2ccccc12)C(=O)N[C@H](C(=O)N[C@@H](CCCNC(=N)N)C(=O)N[C@@H](CCCNC(=N)N)C(N)=O)C(C)C)[C@@H](C)O)C(C)C [SEQ ID NO: 127] (Ac-VHFTFPQDLWNWVRR-NH2)
< 0.5 µM | CC(=O)N[C@H](C(=O)N[C@@H](Cc1c[nH]cn1)C(=O)N[C@@H](Cc1ccccc1)C(=O)N[C@H](C(=O)N[C@@H](Cc1ccccc1)C(=O)N1CCC[C@H]1C(=O)N[C@@H](CCC(N)=O)C(=O)N[C@@H](CC(=O)O)C(=O)N[C@@H](CC(C)C)C(=O)N[C@@H](Cc1c[nH]c2ccccc12)C(=O)N[C@@H](CCC(=O)O)C(=O)N[C@@H](Cc1ccccc1)C(=O)N[C@H](C(=O)N[C@@H](CCCNC(=N)N)C(=O)N[C@@H](CCCNC(=N)N)C(N)=O)C(C)C)[C@@H](C)O)C(C)C [SEQ ID NO: 128] (Ac-VHFTFPQDLWEFVRR-NH2)
< 0.5 µM | CC(=O)N[C@H](C(=O)N[C@@H](Cc1c[nH]cn1)C(=O)N[C@@H](Cc1ccccc1)C(=O)N[C@H](C(=O)N[C@@H](Cc1ccccc1)C(=O)N1CCC[C@H]1C(=O)N[C@@H](CCC(N)=O)C(=O)N[C@@H](CC(=O)O)C(=O)N[C@@H](CC(C)C)C(=O)N[C@@H](Cc1c[nH]c2ccccc12)C(=O)N[C@@H](CCC(=O)O)C(=O)N[C@@H](Cc1c[nH]c2ccccc12)C(=O)N[C@@H](Cc1ccccc1)C(=O)N[C@@H](CCCNC(=N)N)C(=O)N[C@@H](CCCNC(=N)N)C(N)=O)[C@@H](C)O)C(C)C [SEQ ID NO: 129] (Ac-VHFTFPQDLWEWFRR-NH2)
< 0.5 µM | CC(=O)N[C@H](C(=O)N[C@@H](Cc1c[nH]cn1)C(=O)N[C@@H](Cc1ccccc1)C(=O)N[C@@H](CCC(N)=O)C(=O)N[C@@H](Cc1ccccc1)C(=O)N1CCC[C@H]1C(=O)N[C@@H](C)C(=O)N[C@@H](CC(=O)O)C(=O)N[C@@H](CC(C)C)C(=O)N[C@@H](Cc1c[nH]c2ccccc12)C(=O)N[C@@H](CCC(=O)O)C(=O)N[C@@H](Cc1c[nH]c2ccccc12)C(=O)N[C@H](C(=O)N[C@@H](CCCNC(=N)N)C(=O)N[C@@H](CCCNC(=N)N)C(N)=O)C(C)C)C(C)C [SEQ ID NO: 130] (Ac-VHFQFPADLWEWVRR-NH2)
< 0.5 µM | CC(=O)N[C@H](C(=O)N[C@@H](Cc1c[nH]cn1)C(=O)N[C@@H](Cc1ccccc1)C(=O)N[C@@H](CCC(N)=O)C(=O)N[C@@H](Cc1ccccc1)C(=O)N1CCC[C@H]1C(=O)N[C@@H](C)C(=O)N[C@@H](CC(=O)O)C(=O)N[C@@H](Cc1ccccc1)C(=O)N[C@@H](Cc1c[nH]c2ccccc12)C(=O)N[C@@H](CCC(=O)O)C(=O)N[C@@H](Cc1c[nH]c2ccccc12)C(=O)N[C@H](C(=O)N[C@@H](CCCNC(=N)N)C(=O)N[C@@H](CCCNC(=N)N)C(N)=O)C(C)C)C(C)C [SEQ ID NO: 131] (Ac-VHFQFPADFWEWVRR-NH2)
< 0.5 µM | CC(=O)N[C@H](C(=O)N[C@@H](Cc1c[nH]cn1)C(=O)N[C@@H](Cc1ccccc1)C(=O)N[C@@H](CCC(N)=O)C(=O)N[C@@H](Cc1ccccc1)C(=O)N1CCC[C@H]1C(=O)N[C@@H](C)C(=O)N[C@@H](CC(=O)O)C(=O)N[C@@H](CC(C)C)C(=O)N[C@@H](Cc1ccc(O)cc1)C(=O)N[C@@H](CCC(=O)O)C(=O)N[C@@H](Cc1c[nH]c2ccccc12)C(=O)N[C@H](C(=O)N[C@@H](CCCNC(=N)N)C(=O)N[C@@H](CCCNC(=N)N)C(N)=O)C(C)C)C(C)C [SEQ ID NO: 132] (Ac-VHFQFPADLYEWVRR-NH2)
< 0.5 µM | CC(=O)N[C@H](C(=O)N[C@@H](Cc1c[nH]cn1)C(=O)N[C@@H](Cc1ccccc1)C(=O)N[C@@H](CCC(N)=O)C(=O)N[C@@H](Cc1ccccc1)C(=O)N1CCC[C@H]1C(=O)N[C@@H](C)C(=O)N[C@@H](CC(=O)O)C(=O)N[C@@H](CC(C)C)C(=O)N[C@@H](Cc1c[nH]c2ccccc12)C(=O)N[C@@H](CC(N)=O)C(=O)N[C@@H](Cc1c[nH]c2ccccc12)C(=O)N[C@H](C(=O)N[C@@H](CCCNC(=N)N)C(=O)N[C@@H](CCCNC(=N)N)C(N)=O)C(C)C)C(C)C [SEQ ID NO: 133] (Ac-VHFQFPADLWNWVRR-NH2)
< 0.5 µM | CC(=O)N[C@H](C(=O)N[C@@H](Cc1c[nH]cn1)C(=O)N[C@@H](Cc1ccccc1)C(=O)N[C@@H](CCC(N)=O)C(=O)N[C@@H](Cc1ccccc1)C(=O)N1CCC[C@H]1C(=O)N[C@@H](C)C(=O)N[C@@H](CC(=O)O)C(=O)N[C@@H](CC(C)C)C(=O)N[C@@H](Cc1c[nH]c2ccccc12)C(=O)N[C@@H](CCC(=O)O)C(=O)N[C@@H](Cc1ccccc1)C(=O)N[C@H](C(=O)N[C@@H](CCCNC(=N)N)C(=O)N[C@@H](CCCNC(=N)N)C(N)=O)C(C)C)C(C)C [SEQ ID NO: 134] (Ac-VHFQFPADLWEFVRR-NH2)
